Results published in ChEMBL document CHEMBL1201862, “PubChem BioAssay data set” (2004).
Calls of active or inactive are those of the source. Rule as the data show it, for most assays here: actives have a measured IC50 and inactives only a lower limit.

How the values were obtained:
Bcl-2-related protein A1 = biological target: T1, Bcl-2-related protein A1 (Mus musculus, UniProt Q07440); format: functional;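 also: confirmatory dose–response counterscreen on Bfl-1, used to check hits from a UBC13 polyubiquitin inhibitor campaign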
T1 sequence (Q07440 whole entry): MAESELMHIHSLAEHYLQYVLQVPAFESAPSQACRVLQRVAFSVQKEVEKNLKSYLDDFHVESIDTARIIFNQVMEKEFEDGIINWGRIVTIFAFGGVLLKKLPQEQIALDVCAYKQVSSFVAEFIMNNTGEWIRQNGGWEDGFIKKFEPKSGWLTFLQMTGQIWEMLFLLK

[1] = biological target: T2, Ubiquitin-conjugating enzyme E2 N (Homo sapiens, UniProt P61088); format: functional
T2 sequence (P61088 whole entry): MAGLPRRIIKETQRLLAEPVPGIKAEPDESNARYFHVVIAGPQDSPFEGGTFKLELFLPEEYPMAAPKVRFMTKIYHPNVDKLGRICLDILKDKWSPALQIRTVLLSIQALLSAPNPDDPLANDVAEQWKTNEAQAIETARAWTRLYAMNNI

[2] = biological target: T2, Ubiquitin-conjugating enzyme E2 N; format: functional; remark: listed apart in the source
Beta-galactosidase = Beta-galactosidase (Escherichia coli, UniProt Q8VNN2); assay: detection-enzyme interference by beta-gal modulators – biochemical, E. coli enzyme, set 3, artefact control for CCR6 antagonist project, dose response (AID 504712); format: functional
Sequence of Beta-galactosidase (Q8VNN2 whole entry): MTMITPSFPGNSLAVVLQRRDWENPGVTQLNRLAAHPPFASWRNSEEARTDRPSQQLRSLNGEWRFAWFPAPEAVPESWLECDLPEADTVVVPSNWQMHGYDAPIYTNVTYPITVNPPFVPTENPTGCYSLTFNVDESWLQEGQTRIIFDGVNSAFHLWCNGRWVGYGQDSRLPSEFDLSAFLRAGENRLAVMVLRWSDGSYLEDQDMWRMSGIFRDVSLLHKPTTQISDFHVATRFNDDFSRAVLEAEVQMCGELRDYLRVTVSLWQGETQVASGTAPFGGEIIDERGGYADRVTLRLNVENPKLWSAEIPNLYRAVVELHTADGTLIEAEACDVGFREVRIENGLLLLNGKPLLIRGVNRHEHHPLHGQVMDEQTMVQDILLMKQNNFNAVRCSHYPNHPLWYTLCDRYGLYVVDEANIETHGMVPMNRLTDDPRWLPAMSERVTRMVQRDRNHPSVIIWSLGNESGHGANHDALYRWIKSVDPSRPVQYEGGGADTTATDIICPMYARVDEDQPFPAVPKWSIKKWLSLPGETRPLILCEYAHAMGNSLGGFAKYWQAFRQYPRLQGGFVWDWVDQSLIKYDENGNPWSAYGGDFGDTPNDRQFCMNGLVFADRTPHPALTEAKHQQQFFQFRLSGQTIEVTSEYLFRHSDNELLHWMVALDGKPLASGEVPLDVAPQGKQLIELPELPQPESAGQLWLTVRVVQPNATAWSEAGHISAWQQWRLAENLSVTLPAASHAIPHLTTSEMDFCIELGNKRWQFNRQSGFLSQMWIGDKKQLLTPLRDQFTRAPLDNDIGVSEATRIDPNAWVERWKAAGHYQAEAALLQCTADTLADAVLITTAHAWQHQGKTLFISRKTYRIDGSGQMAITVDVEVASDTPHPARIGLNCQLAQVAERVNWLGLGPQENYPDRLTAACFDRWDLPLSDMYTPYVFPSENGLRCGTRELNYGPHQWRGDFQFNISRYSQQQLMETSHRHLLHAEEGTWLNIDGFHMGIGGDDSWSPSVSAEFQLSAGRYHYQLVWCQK

[3] = biological target: T3, Tyrosine-protein phosphatase non-receptor type 7 (Homo sapiens, UniProt P35236); assay: inhibition of hematopoietic tyrosine phosphatase HePTP – biochemical, set 2, SAR follow-up (AID 449736); format: functional
T3 sequence (P35236 whole entry): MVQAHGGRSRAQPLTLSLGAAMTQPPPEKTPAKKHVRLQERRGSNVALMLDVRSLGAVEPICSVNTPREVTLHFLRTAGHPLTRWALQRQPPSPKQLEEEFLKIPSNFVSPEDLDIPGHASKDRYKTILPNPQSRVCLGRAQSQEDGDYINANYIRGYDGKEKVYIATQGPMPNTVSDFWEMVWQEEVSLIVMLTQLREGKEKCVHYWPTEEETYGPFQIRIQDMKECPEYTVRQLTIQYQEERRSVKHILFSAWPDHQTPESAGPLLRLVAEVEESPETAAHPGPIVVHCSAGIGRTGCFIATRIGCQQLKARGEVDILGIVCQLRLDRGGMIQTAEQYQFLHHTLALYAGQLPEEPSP

[4] = biological target: T4, Tyrosine-protein phosphatase non-receptor type 22 (Homo sapiens, UniProt Q9Y2R2); assay: inhibition of lymphoid tyrosine phosphatase LYP – biochemical, pCAP fluorogenic substrate, fluorescence, set 3, SAR follow-up (AID 449727); format: functional
T4 sequence (Q9Y2R2 whole entry): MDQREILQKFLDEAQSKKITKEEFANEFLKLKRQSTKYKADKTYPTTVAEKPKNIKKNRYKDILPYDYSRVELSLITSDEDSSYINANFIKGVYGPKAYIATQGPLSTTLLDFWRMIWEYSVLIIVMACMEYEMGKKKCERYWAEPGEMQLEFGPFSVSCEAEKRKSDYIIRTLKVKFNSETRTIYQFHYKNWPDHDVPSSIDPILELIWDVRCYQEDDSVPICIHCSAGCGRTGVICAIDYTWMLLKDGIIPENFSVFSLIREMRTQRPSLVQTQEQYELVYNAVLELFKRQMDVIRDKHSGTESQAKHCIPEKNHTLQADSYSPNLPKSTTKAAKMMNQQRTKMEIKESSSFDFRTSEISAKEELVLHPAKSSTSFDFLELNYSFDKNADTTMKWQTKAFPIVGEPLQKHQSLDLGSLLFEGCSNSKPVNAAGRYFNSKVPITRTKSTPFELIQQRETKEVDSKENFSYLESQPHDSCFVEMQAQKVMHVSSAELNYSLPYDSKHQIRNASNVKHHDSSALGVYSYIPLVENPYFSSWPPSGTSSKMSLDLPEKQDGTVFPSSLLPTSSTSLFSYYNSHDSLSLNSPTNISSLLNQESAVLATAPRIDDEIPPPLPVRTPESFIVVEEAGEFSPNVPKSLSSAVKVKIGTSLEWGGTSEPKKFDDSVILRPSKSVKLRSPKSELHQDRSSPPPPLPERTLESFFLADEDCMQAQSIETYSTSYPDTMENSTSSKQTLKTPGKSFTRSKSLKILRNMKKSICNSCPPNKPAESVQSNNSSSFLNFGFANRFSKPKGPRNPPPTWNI

[5] = biological target: T5, Dual specificity protein phosphatase 3 (Homo sapiens, UniProt P51452); assay: SAR VHR1 absorbance Assay for In Vitro dose response studies. [Related pubchem assays (depositor defined):AID1654, AID1661, AID1878, AID1992, AID2004]
T5 sequence (P51452 whole entry): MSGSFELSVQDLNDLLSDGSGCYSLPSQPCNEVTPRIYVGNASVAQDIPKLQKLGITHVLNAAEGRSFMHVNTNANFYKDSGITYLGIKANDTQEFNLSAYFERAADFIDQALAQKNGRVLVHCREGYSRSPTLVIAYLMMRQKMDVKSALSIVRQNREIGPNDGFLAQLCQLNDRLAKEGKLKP

[6] = biological target: T4, Tyrosine-protein phosphatase non-receptor type 22; assay: SAR LYP1 Fluorescent Assay using OMFP substrate for In Vitro dose response studies - Set 3. [Related pubchem assays (depositor defined):AID1779, AID1784, AID2140, AID2686]; format: functional
[7] = biological target: T3, Tyrosine-protein phosphatase non-receptor type 7; assay: redox-active compounds inhibiting HePTP phosphatase – biochemical, fluorescence, mechanism study (AID 2068); format: functional
[8] = biological target: T6, Dual specificity protein phosphatase 6 (Rattus norvegicus, UniProt Q64346); format: functional;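 also: confirmatory in vitro dose-response testing of MKP-3 inhibition; recombinant His-tagged MKP-3 made in E. coli BL21 with OMFP substrate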
T6 sequence (Q64346 whole entry): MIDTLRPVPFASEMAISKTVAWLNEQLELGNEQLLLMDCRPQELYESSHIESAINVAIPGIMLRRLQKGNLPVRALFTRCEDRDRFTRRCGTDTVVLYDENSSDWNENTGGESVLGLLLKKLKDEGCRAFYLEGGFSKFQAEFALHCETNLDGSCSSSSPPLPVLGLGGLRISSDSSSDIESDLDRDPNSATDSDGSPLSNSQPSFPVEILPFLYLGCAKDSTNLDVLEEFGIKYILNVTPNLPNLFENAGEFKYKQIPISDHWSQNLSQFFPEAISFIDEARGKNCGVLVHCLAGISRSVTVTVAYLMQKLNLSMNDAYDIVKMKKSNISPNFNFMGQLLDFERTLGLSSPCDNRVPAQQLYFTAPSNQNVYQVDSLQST

[9] = biological target: T5, Dual specificity protein phosphatase 3; assay: SAR VHR1 Fluorescent Assay for In Vitro dose response studies. [Related pubchem assays (depositor defined):AID1654, AID1661, AID1878, AID1992, AID2004, AID2070, AID2085]; format: functional
[10] = biological target: Tyrosine-protein phosphatase non-receptor type 12 (Homo sapiens, UniProt Q05209); assay: SAR Selectivity Analysis of small molecule inhibitors of PEST using pCAP in a fluorescence assay. [Related pubchem assays (depositor defined):AID1779, AID1784, AID2135]; format: functional
Sequence of Tyrosine-protein phosphatase non-receptor type 12 (Q05209 whole entry): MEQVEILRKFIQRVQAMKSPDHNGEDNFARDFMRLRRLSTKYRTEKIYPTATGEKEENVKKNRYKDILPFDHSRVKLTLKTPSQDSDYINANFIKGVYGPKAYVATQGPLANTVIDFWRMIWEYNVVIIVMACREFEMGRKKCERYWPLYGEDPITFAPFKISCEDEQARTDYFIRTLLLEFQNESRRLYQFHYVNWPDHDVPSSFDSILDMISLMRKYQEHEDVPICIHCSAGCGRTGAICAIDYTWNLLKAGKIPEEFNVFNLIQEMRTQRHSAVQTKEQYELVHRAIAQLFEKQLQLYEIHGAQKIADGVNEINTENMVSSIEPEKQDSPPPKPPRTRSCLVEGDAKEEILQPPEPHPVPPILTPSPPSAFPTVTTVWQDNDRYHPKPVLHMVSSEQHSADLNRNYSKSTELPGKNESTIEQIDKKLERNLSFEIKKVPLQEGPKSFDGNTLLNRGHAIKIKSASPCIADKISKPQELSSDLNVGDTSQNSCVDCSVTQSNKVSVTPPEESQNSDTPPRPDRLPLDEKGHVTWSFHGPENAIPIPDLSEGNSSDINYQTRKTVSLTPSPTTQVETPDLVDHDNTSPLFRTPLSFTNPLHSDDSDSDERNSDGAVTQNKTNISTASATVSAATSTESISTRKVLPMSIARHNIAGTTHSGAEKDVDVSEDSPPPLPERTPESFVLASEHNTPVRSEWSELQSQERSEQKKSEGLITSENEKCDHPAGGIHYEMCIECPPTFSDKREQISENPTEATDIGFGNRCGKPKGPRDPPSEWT

[11] = biological target: Voltage-dependent T-type calcium channel subunit alpha-1H (Homo sapiens, UniProt O95180); assay: human CACNA1H calcium influx blockade – cell-based, synthetic library set 2, HEK293 HH8, Fluo-4, SAR follow-up (AID 493023); format: functional
[12] = biological target: Delta-type opioid receptor (Homo sapiens, UniProt P41143); assay: SAR Analysis of Antagonists of the DOR Receptor using an Image-Based Assay - Set 3. [Related pubchem assays (depositor defined):AID1777, AID1785]; format: functional;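 also: U2OS cells expressing DOR1 and beta-arrestin GFP stimulated with 100 nM SNC80; imaging of GFP-tagged beta-arrestin moving into spots after receptor activation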
Sequence of Delta-type opioid receptor (P41143 whole entry): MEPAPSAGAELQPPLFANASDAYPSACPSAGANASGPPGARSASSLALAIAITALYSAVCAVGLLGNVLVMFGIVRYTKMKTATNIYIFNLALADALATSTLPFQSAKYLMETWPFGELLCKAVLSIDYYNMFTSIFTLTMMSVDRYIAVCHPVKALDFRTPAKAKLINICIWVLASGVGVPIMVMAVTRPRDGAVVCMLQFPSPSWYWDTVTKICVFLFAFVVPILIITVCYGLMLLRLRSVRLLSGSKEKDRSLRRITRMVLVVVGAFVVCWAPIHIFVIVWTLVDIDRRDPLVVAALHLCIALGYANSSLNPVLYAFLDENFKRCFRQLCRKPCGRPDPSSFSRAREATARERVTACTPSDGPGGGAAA

[13] = biological target: T7, Kappa-type opioid receptor (Homo sapiens, UniProt P41145); assay: SAR analysis of small molecule antagonists of the kappa opioid receptor via a luminescent beta-arrestin assay - Set 3. [Related pubchem assays (depositor defined):AID1777, AID1778, AID1785, AID1786, AID1966, AID2133, AID2136, AID2285, AID2495]; format: functional
T7 sequence (P41145 whole entry): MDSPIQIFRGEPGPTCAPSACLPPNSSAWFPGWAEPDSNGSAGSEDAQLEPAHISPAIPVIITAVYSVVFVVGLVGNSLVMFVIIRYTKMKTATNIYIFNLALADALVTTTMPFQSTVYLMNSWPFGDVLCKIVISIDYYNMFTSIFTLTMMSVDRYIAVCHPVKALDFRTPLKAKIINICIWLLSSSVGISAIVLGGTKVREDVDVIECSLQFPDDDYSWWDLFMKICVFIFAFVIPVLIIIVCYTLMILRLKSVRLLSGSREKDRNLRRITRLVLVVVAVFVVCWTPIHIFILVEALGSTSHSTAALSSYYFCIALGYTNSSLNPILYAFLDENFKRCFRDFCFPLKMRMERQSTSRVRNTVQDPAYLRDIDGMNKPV

[14] = biological target: T7, Kappa-type opioid receptor; assay: SAR analysis of Antagonists of the Kappa Opioid Receptor (KOR) using an Image-Based Assay - Set 3. [Related pubchem assays (depositor defined):AID1777, AID1785]; format: functional
Mu-type opioid receptor = Mu-type opioid receptor (Homo sapiens, UniProt P35372); assay: SAR Analysis of Antagonists of the MOR Receptor using an Image-Based Assay - Set 3. [Related pubchem assays (depositor defined):AID1777, AID1785, AID1786, AID1966, AID2133, AID2136, AID2284, AID2285, AID2420]; format: functional
Sequence of Mu-type opioid receptor (P35372 whole entry): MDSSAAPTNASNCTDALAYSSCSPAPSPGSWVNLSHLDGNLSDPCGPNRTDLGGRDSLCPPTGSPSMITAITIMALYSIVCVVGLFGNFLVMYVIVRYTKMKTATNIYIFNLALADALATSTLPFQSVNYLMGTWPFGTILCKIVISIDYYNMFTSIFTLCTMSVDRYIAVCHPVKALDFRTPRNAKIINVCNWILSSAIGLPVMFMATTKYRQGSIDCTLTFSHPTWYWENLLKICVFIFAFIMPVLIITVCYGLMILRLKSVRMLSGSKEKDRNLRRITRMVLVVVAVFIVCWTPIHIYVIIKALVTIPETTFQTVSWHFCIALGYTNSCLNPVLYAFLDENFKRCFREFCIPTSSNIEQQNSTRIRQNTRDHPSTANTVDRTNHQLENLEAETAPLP

[15] = biological target: T8, DNA dC->dU-editing enzyme APOBEC-3G (Homo sapiens, UniProt Q9HC16); assay: inhibition of APOBEC3G ssDNA deamination – biochemical, fluorescence, single-stranded DNA substrate, SAR follow-up (AID 602136); format: functional; settings: read-out: IC50_Mean
T8 sequence (Q9HC16 whole entry): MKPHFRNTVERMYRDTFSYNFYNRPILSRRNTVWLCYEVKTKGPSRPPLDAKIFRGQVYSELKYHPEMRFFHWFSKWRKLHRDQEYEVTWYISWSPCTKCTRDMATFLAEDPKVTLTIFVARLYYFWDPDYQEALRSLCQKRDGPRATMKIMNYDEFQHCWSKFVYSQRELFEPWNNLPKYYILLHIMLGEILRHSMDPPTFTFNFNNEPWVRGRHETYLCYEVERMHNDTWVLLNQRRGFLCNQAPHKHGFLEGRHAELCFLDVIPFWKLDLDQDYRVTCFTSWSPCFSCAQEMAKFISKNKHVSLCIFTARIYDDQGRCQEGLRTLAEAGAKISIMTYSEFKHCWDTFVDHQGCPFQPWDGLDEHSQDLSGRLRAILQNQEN

[16] = biological target: T9, Eukaryotic translation initiation factor 4H (Homo sapiens, UniProt Q15056); assay: eIF4H binding inhibition – biochemical, uHTS, fluorescence polarization, translation initiation inhibitor project, primary screen (AID 2012)
[17] = biological target: T8, DNA dC->dU-editing enzyme APOBEC-3G; assay: SAR analysis of small molecule inhibitors of APOBEC3G DNA Deaminase via a fluorescence-based single-stranded DNA deaminase assay - Set 2.; format: functional; settings: read-out: IC50_Mean
[18] = biological target: T9, Eukaryotic translation initiation factor 4H; assay: inhibitors of translation initiation factor eIF4H – SAR follow-up (AID 435011); format: functional
[19] = biological target: T10, Polyadenylate-binding protein 1 (Homo sapiens, UniProt P11940); assay: blockers of PABP interaction with poly(A) – biochemical, fluorescence polarization, […] (AID 2014)
T10 sequence (P11940 whole entry): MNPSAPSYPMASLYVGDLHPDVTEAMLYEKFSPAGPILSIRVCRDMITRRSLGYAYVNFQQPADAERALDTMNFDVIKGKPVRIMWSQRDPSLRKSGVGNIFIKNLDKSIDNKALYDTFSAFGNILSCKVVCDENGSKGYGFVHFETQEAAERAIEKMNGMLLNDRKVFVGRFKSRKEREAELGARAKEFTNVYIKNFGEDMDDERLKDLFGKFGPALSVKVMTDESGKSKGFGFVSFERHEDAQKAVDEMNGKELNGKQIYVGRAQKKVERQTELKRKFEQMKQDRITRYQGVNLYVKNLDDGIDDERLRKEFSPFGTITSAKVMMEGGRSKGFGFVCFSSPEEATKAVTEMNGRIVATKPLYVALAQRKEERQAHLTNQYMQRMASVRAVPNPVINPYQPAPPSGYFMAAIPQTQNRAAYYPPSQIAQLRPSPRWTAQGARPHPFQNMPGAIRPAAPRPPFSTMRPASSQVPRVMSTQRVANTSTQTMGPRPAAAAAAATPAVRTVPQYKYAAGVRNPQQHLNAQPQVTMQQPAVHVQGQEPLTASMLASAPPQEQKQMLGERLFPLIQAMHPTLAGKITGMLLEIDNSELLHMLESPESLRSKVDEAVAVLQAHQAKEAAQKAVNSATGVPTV

[20] = biological target: T11, DNA dC->dU-editing enzyme APOBEC-3A (Homo sapiens, UniProt P31941); assay: Dose Response confirmation of small molecule APOBEC3A DNA Deaminase Inhibitors via a fluorescence-based single-stranded DNA deaminase assay. [Related pubchem assays (depositor defined):AID493011, AID493024]; format: functional
T11 sequence (P31941 whole entry): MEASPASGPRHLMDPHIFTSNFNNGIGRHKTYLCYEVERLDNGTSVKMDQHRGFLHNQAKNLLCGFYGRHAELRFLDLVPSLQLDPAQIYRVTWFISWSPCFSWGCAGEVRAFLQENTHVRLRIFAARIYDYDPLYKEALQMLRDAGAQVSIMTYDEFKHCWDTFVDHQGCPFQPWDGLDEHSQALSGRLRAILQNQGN

[21] = biological target: T11, DNA dC->dU-editing enzyme APOBEC-3A; assay: SAR analysis of small molecule inhibitors of APOBEC3A DNA Deaminase via a fluorescence-based single-stranded DNA deaminase assay.; format: functional; settings: read-out: IC50_Mean
[22] = biological target: T11, DNA dC->dU-editing enzyme APOBEC-3A; assay: SAR analysis of small molecule inhibitors of APOBEC3A DNA Deaminase via a fluorescence-based single-stranded DNA deaminase assay - Set 2.; format: functional; settings: read-out: IC50_Mean
[23] = biological target: T10, Polyadenylate-binding protein 1; assay: PABP inhibition in translation initiation, SAR follow-up (AID 435018); format: functional
[24] = biological target: T8, DNA dC->dU-editing enzyme APOBEC-3G; format: functional
[25] = biological target: G-protein coupled receptor 55 (Homo sapiens, UniProt Q9Y2T6); assay: selective activators of receptor GPR55 – imaging, U2OS cells, beta-arrestin-GFP redistribution, primary screen (AID 1961); format: functional
Sequence of G-protein coupled receptor 55 (Q9Y2T6 whole entry): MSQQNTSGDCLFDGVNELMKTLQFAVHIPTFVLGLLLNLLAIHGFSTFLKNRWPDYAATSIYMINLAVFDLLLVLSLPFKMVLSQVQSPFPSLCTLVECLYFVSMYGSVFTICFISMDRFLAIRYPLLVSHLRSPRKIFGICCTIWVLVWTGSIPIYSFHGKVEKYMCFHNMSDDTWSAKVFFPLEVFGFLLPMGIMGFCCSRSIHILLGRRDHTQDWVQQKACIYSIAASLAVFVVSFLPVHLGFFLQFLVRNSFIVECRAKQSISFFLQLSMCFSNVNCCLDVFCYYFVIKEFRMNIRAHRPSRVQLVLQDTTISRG

Which results are given for `NC(=O)c1ccc(Cn2c(C(=O)c3cc(Cl)c(N)c(Cl)c3)c3ccccc3[n+]2[O-])cc1`?
IC50 (Bcl-2-related protein A1): > 20 µM (inactive); IC50 [1]: 10.8 µM (active); IC50 [2]: > 20 µM (inactive)

How did the IC50 (Beta-galactosidase) turn out when `CCCCC(=O)NNC=C1C(=O)N(CC)C(=S)N(CC)C1=O` was run?
Its IC50 is > 66.6 µM (inactive).

How did the IC50 [3] turn out when `Cc1cc(OCC(=O)O)ccc1[S+](C)[O-]` (stereo not drawn) was run?
Its IC50 is > 100 µM (inactive).

What about the IC50 [4] of the same compound?
The IC50 was > 100 µM (inactive).

And the IC50 [5]?
The IC50 was > 100 µM (inactive).

What about the IC50 [6] of the same compound?
Its IC50 is > 100 µM (inactive).

And the IC50 [7]?
The IC50 was > 100 µM (inactive).

And the IC50 [8]?
The IC50 was > 99 µM (inactive).

What about the IC50 [9] of the same compound?
Its IC50 is > 99 µM (inactive).

And the IC50 [10]?
The IC50 was > 100 µM (inactive).

`O=C(COc1ccccc1Cl)N[C@@H]1CCCN(Cc2ccccc2)C1` was tested. Which EC50 [11] did it give?
Its EC50 is 10 µM (active).

Which results are given for `O=C(Cn1c(=O)c2cccn2c2cccnc21)NCCCN1CCN(Cc2ccccc2)CC1`?
IC50 [12]: > 32 µM (inactive); IC50 [13]: > 20 µM (inactive); IC50 [14]: 11 µM (inactive); IC50 (Mu-type opioid receptor): > 32 µM (inactive)

What does the source list for `CCOC(=O)c1ccc2c(c1)N(C)C(=O)c1ccccc1S2`?
IC50 [15]: 8.67 µM (active); IC50 [16]: > 100 µM (inactive); IC50 [17]: > 99 µM (inactive); IC50 [18]: 11.7 µM (active); IC50 [19]: 8.14 µM (active); IC50 [20]: 1.55 µM (active); IC50 [21]: 16.6 µM (inactive); IC50 [22]: 12.9 µM (inactive); IC50 [23]: 22.2 µM (active); IC50 [24]: > 100 µM (inactive)

Which EC50 [25] does the source give for `COc1cc(/C=C2\C(=O)ON=C2c2ccccc2)cc(Cl)c1O` here?
The EC50 was > 32 µM (inactive).
